Measured values: ChEMBL document CHEMBL1137602, “Synthesis of aromatic compounds containing a 1,1-dialkyl-2-trifluoromethyl group, a bioisostere of the tert-alkyl moiety” (Bioorg Med Chem Lett, 2007)
pIC50: −log10 of the molar value.

Legend:
[1] = target: Transient receptor potential cation channel subfamily V member 1 (Homo sapiens, UniProt Q8NER1); assay: Antagonist activity at human TRPV1 receptor; assay type: functional
[2] = Intrinsic clearance in human liver microsomes; assay type: ADME, Microsome
Liver microsomes = assay: Metabolic stability in human liver microsomes; assay type: ADME, Microsome

Sequence of Transient receptor potential cation channel subfamily V member 1 (Q8NER1 whole entry): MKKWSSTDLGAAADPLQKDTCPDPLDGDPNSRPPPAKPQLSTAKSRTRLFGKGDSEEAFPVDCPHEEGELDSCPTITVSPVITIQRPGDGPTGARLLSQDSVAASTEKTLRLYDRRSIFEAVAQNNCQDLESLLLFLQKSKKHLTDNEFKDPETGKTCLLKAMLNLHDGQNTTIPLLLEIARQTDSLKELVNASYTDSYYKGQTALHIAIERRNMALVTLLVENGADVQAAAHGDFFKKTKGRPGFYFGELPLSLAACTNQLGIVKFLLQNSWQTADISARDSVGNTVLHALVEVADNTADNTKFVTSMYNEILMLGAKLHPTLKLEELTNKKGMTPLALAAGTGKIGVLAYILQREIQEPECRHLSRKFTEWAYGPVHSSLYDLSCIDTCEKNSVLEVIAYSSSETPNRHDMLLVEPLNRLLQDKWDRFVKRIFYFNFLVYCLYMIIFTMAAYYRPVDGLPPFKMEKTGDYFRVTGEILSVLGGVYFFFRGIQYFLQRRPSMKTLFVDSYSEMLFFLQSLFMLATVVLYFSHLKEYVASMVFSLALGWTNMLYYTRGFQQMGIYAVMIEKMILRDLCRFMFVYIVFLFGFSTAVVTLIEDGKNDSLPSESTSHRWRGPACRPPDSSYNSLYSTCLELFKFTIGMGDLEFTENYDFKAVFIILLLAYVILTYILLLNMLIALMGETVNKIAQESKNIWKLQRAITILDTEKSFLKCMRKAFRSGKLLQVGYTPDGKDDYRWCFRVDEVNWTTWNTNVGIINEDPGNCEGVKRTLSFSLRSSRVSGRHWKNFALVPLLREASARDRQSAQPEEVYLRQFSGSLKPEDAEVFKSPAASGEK

| pIC50 [1] | CLint scaled [2] | Activity (Liver microsomes) | microsomal CLint [2] | Compound |
| --- | --- | --- | --- | --- |
| 7.43 | 168 mL/min/kg |  |  | CC(C)(C)c1ccc(NC(=O)c2ccc(-c3ncccc3Cl)cc2)cc1 |
| 6.70 | < 10.5 mL/min/kg |  |  | O=C(Nc1ccc(C(F)(F)F)cc1)c1ccc(-c2ncccc2Cl)cc1 |
| 7.38 | 46 mL/min/kg | Active |  | CC(C)(c1ccc(NC(=O)c2ccc(-c3ncccc3Cl)cc2)cc1)C(F)(F)F |
|  |  | Active | 44.7 µL/min/mg | COc1ccc(C(C)(C)C(F)(F)F)cc1CN[C@H]1CCCN[C@H]1c1ccccc1 |
|  |  |  | 87.9 µL/min/mg | COc1ccc(C(C)(C)C)cc1CN[C@H]1CCCN[C@H]1c1ccccc1 |
